Measured values from article PMC8198049, “Synthesis and Evaluation of the Tetracyclic Ring-System of Isocryptolepine and Regioisomers for Antimalarial, Antiproliferative and Antimicrobial Activities” (Molecules, 2021).
In brackets after ≈: the same amount, converted by molar mass. Where a name gives a salt, the structure may show the parent alone. Read-outs that look alike come from different tables or passages of the source.

Legend:
[1] = Cytotoxicity assay (resazurin-based viability); assay type: cell-based; settings: human, HEK293 cells, mean ± standard deviation, two separate experiments
Procedure: Fluorescence was measured using an EnSight plate reader (PerkinElmer, Waltham, MA, USA).

[2] = Antiplasmodial imaging assay; assay type: cell-based, Plasmodium falciparum; settings: human (HEK293) and Plasmodium falciparum (3D7)
Procedure: (§1) Compounds tested in the antiproliferative assays were tested in 11 dilution points (0.02 µM–40 µM or 0.04 µM–80 µM).
(§2) Antiplasmodial activity was determined as previously described by Duffy and Avery. […] After incubation, plates were stained with 4’,6-diamidino-2-phenylindole (DAPI) in a permeabilization buffer for 5 h at rt in the dark. Plates were imaged on the Opera confocal microplate image reader (PerkinElmer).

[3] = system: Plasmodium falciparum 3D7 strain; test: Antiplasmodial imaging assay; assay type: cell-based; settings: P. falciparum 3D7, 72 h, mean ± standard deviation, two separate experiments; for IC50: Plasmodium falciparum
Procedure: as §1, §2

[4] = system: PC-3 (human prostate cancer); test: Antiproliferative assay (resazurin); assay type: cell-based; settings: for IC50: Homo sapiens, 72 h compound incubation, mean ± sem, two separate experiments; for % at 40 µM (PC-3): PC-3, 40 µM; for % at 80 µM (PC-3): PC-3, 80 µM
Procedure: (§3) Compounds tested in the antiproliferative assays were tested in 11 dilution points (0.02 µM–40 µM or 0.04 µM–80 µM). […] HCT116 cells were maintained in McCoy’s 5A media (Life Technologies, CA, USA), MDA-MB-231 cells were cultured in DMEM media (Life Technologies) with 10 mM HEPES (Life Technologies), whilst PC-3 cells were maintained in RPMI media (Life Technologies). All media were supplemented with 10% heat-inactivated fetal bovine serum (Australian source; Corning, CA, USA) and all cells were incubated at 37 °C in a humidified incubator with 5% CO2. Cells were seeded in 384-well plates (Greiner Bio-One, NC, USA) using the respective complete media. After 24 h cell seeding, compounds were added and antiproliferative activity was determined using the resazurin assay after 72 h compound incubation. Briefly, cells were incubated with 60 µM resazurin (Cayman, MI, USA) for 6 h at 37 °C and fluorescence signals were measured using a microplate reader (EnSight, PerkinElmer, Waltham, MA, USA).

[5] = system: MDA-MB-231 (human breast adenocarcinoma); test: Antiproliferative assay (resazurin); assay type: cell-based; settings: for IC50: Homo sapiens, MDA-MB-231, 72 h compound incubation, mean ± sem, two separate experiments; for % at 80 µM (printed in MDA-MB-231 IC50 column): MDA-MB-231, 80 µM
Procedure: as §3

[6] = system: HCT116 (human colon cancer); test: Antiproliferative assay (resazurin); assay type: cell-based; settings: for IC50: Homo sapiens, HCT-116, 72 h compound incubation, mean ± sem, two separate experiments
Procedure: as §3

E. faecalis (ATCC 29122) = test: Bacterial growth inhibition assay; assay type: cell-based, Enterococcus faecialis; settings: Enterococcus faecalis, ATCC29122
Procedure: (§4) The prepared samples were tested for in vitro antimicrobial activity against E. faecalis, E. coli, P. aeruginosa, S. aureus, Streptococcus agalactiae and S. epidermis using gentamycin as a reference compound.
(§5) To determine and quantify antimicrobial activity, a bacteria growth inhibition assay in liquid media was executed. Compounds 2–3, 4, 8–10, 13–14, 16, 18, and 20 were tested against Staphylococcus aureus (ATCC 25923), Escherichia coli (ATCC 259233), Enterococcus faecialis (ATCC 29122), Pseudomonas aeruginosa (ATCC 27853) and Streptococcus agalactiae (ATCC 12386); all strains from LGC Standards (Teddington, UK). S. aureus, E. coli, and P. aeruginosa were grown in Muller Hinton broth (275730, Becton, Franklin Lakes, NJ, USA). E. faecalis and S. agalactiae were cultured in brain hearth infusion broth (53286, Sigma, St Louise, MO, USA). Fresh bacterial colonies were transferred in the respective medium and incubated at 37 °C overnight. The bacterial cultures were diluted to a culture density representing the log phase and µL/well were pipetted into a 96-well microtiter plate (734–2097, NunclonTM, Thermo Scientific, Waltham, MA, USA). The final cell density was 1500–15.000 colony forming units/well. The compound was diluted in 2% (v/v) DMSO in ddH2O, providing a final assay concentration of 50% of the prepared sample, since 50 µL of sample in DMSO/water were added to 50 µL bacterial culture. After adding the samples to the plates, they were incubated overnight at 37 °C and the growth was determined by measuring the optical density at λ = 600 nm (OD600) with a 1420 Multilabel Counter VICTOR3TM (Perkin Elmer, Waltham, MA, USA). A water sample was used as a reference control, growth medium without bacteria was used as a negative control and dilution series of gentamycin (A2712, Merck, Darmstadt, DE) from 32 to 0.01 µg/mL was used as positive control and visually inspected for bacterial growth. The positive control was used as a system suitability test and the results of the antimicrobial assay were only considered valid when positive control was passed. The final concentration of DMSO in the assays was ≤2% (v/v) and was known to have no effect in the tested bacteria. The data was processed using GraphPad Prism 8.

S. aureus (ATCC 25923) = test: Bacterial growth inhibition assay; assay type: cell-based, Staphylococcus aureus; settings: Staphylococcus aureus, ATCC25923
Procedure: as §4, §5

[7] = system: HCT116, MDA-MB-231 and PC-3; test: Antiproliferative assay, whole panel of cancer cell lines; assay type: cell-based, human
Procedure: as §3

[8] = system: Streptococcus agalactiae (ATCC 12386); test: Bacterial growth inhibition assay; assay type: cell-based; settings: ATCC12386
Procedure: as §4, §5

[9] = HEK293 cells versus Plasmodium falciparum 3D7 culture, HEK293 vs 3D7, read-out: SI (selectivity index = cytotoxicity in HEK293/activity in 3D7)

| SMILES | IC50 [3] | IC50 [4] | IC50 [5] | IC50 [6] | IC50 at 72 h [1] | selectivity ratio at 72 h [2, 9] | further results |
| --- | --- | --- | --- | --- | --- | --- | --- |
| C[n+]1cccc2c3c(ccc21)[nH]c1ccccc13 (as salt: hydroiodid) [Compound 10, 4-Methyl-7H-pyrido[2,3-c]carbazolium Iodide] |  |  |  |  |  |  | melting point: 284 to 286 °C |
| C[n+]1cccc2c3[nH]c4ccccc4c3ccc21 (as salt: hydroiodid) [Compound 21, 4-Methyl-11H-pyrido[3,2-a]carbazolium Iodide] |  |  |  |  |  |  | melting point: 279 to 280 °C |
| CCN(CC)CCCC(C)Nc1ccnc2cc(Cl)ccc12 (stereo not shown) [Chloroquine, chloroquine, reference compound] |  |  |  |  | > 4 µM |  |  |
| CN1C=Cc2nc3ccccc3c3cccc1c23 [Compound 8a, 4-Methyl-4H-pyrido[4,3,2-gh]phenanthridine] | 1698 ± 5 nM | 2570 ± 114 nM | 360 ± 51 nM | 444 ± 52 nM | 7.41 ± 0.207 µM | 4.4 | MIC (E. faecalis (ATCC 29122)): 75 µM (≈ 17.4 µg/mL); MIC (S. aureus (ATCC 25923)): 75 µM (≈ 17.4 µg/mL); melting point: 182 to 183 °C |
| C[n+]1cccc2c3c(ccc21)[nH]c1ccccc13 [Compound 10, 4-Methyl-7H-pyrido[2,3-c]carbazolium Iodide] | 128 ± 2 nM |  |  |  |  | 214 | activity against the panel of cancer cell lines [7]: no activity; % at 40 µM (PC-3) [4]: 36% at 40 µM; % at 40 µM (printed in MDA-MB-231 IC50 column) ([5]; MDA-MB-231, 40 µM): 24% at 40 µM; % at 40 µM (printed in HCT116 IC50 column) ([6]; HCT116, 40 µM): 38% at 40 µM |
| c1ccc2nc3[nH]c4ccccc4c3cc2c1 [Compound 13, 6H-Indolo[2,3-b]quinoline] |  |  |  |  |  |  | activity against the panel of cancer cell lines [7]: inactive; 3D7 IC50 [3]: no antiplasmodial inhibition |
| c1ccc2c(c1)ncc1c3ccccc3[nH]c21 [Compound 14, 11H-indolo[3,2-c]quinoline] | 977 ± 11 nM |  |  | 3570 ± 309 nM | 18.46 ± 0.183 µM | 18.9 | activity against the panel of cancer cell lines [7]: poor activity; % at 80 µM (PC-3) [4]: 30% at 80 µM ^f; % at 80 µM (printed in MDA-MB-231 IC50 column) [5]: 36% at 80 µM ^e |
| c1ccc2c(c1)[nH]c1c3cccnc3ccc21 [Compound 16, 11H-pyrido[3,2-a] carbazole] |  |  |  |  |  |  | 3D7 IC50 ([3]; listed as 15): little to no activity; % at 80 µM (printed in MDA-MB-231 IC50 column) [5]: 80% at 80 µM; % at 80 µM (printed in HCT116 IC50 column) ([6]; HCT116, 80 µM): 82% at 80 µM |
| c1cnc2c(c1)ccc1c3ccccc3[nH]c12 [Compound 18, 11H-Pyrido[2,3-a]carbazole] |  |  |  |  |  |  | melting point: 164 °C |
| C[C@H]1[C@@H](O)O[C@@H]2O[C@@]3(C)CC[C@H]4[C@H](C)CC[C@@H]1[C@@]24OO3 [DHA, dihydroartemisinin, reference compound] | 1 ± 0.07 nM |  |  |  |  | 74 |  |
| COc1cccc2c1C(=O)c1c(O)c3c(c(O)c1C2=O)C[C@@](O)(C(=O)CO)C[C@@H]3O[C@H]1C[C@H](N)[C@H](O)[C@H](C)O1 [Doxorubicin, reference compound] |  | 830 nM | 590 nM | 150 nM |  |  |  |

Now from value to compound, other results behind:

| IC50 [3] | IC50 [4] | IC50 [5] | IC50 [6] | SMILES | IC50 at 72 h [1] | selectivity ratio at 72 h [2, 9] | further results |
| --- | --- | --- | --- | --- | --- | --- | --- |
| 1318 ± 5 nM | 2440 ± 94 nM | 998 ± 300 nM | 742 ± 11 nM | CCn1cc2c3ccccc3nc-2c2ccccc21 [Compound 3b, 5-Ethyl-5H-indolo[3,2-c]quinoline] | 3.08 ± 0.049 µM | 2.3 | melting point: 198 °C |
| 1200 ± 32 nM | 1300 ± 51 nM | 3060 ± 467 nM | 1240 ± 80 nM | C=CCn1cc2c3ccccc3nc-2c2ccccc21 [Compound 3c, 5-Allyl-5H-indolo[3,2-c]quinoline] | 3.15 ± 0.04 µM | 2.6 |  |
| 548 ± 3 nM | 1630 ± 173 nM | 594 ± 140 nM | 721 ± 27 nM | c1ccc2c(c1)Nc1ccnc3cccc-2c13 [Compound 4a, 7H-pyrido[4,3,2-gh]phenanthridine] | 2.83 ± 0.092 µM | 5.2 | MIC (E. faecalis (ATCC 29122)): 100 µM (≈ 21.8 µg/mL); MIC (S. aureus (ATCC 25923)): 100 µM (≈ 21.8 µg/mL) |
| 2410 ± 42 nM |  | 16400 nM | 17000 nM | c1cnc2c(c1)ccc1[nH]c3ccccc3c12 [Compound 20, 7H-Pyrido[3,2-c]carbazole] |  |  | % at 40 µM (PC-3) [4]: 47% at 40 µM |
| 380 ± 0.5 nM |  |  |  | C[n+]1cccc2c3[nH]c4ccccc4c3ccc21 [Compound 21, 4-Methyl-11H-pyrido[3,2-a]carbazolium Iodide] |  |  | activity against the panel of cancer cell lines [7]: no activity |
| 7249 ± 6 nM |  | 10400 nM | 6220 ± 90 nM | Cn1c2nc3ccccc3c-2cc2ccccc21 [Neocryptolepine (2), Neocryptolepine] | > 20 µM | > 2.8 | % at 80 µM (PC-3) [4]: 27% at 80 µM; MIC [8]: 100 µM (≈ 23.2 µg/mL) |
| 93 ± 2 nM | 270 nM | 300 nM | 85 nM | COc1ccc(C[C@H](N)C(=O)N[C@H]2[C@@H](O)[C@H](n3cnc4c(N(C)C)ncnc43)O[C@@H]2CO)cc1 [Puromycin, puromycin, reference compound] | 0.003 ± 0.003 µM |  | selectivity ratio at 72 h [2]: 0.03 |
